Measured values from patent US20250082663A1, “COMPOUNDS AND METHODS FOR TREATING OR […] DOMINANT POLYCYSTIC KIDNEY DISEASE (ADPKD), AUTOSOMAL DOMINANT […] DISEASE (ADPLD) AND/OR AUTOSOMAL RECESSIVE POLYCYSTIC KIDNEY DISEASE (ARPKD)” (YALE UNIVERSITY, priority 2021, published 2025).
“Also recorded” adds a separate entry of the source.

What was measured:
[1] = tested on: Pkd1^flox/flox; Pax8rtTA; tet-OCre mice; test: Adult ADPKD model, complete loss of function (doxycycline-induced Pkd1 deletion); type: in vivo, mouse; details: for KW/BW ratio: p=0.03
Description: FIGS. 19A-19B: Ire1α inhibitor improves disease progression in an adult ADPKD model. Adult onset model with complete loss of function (Pkd1fl/fl;Pax8rtTA;tet-OCre). […]
The present study first tested toyocamycin in Pkd1^flox/flox; Pax8rtTA; tet-OCre mice. […] […] The present study recapitulated these findings in another slow progressing adult ADPKD model. A compound mutant model with a floxed Pkd1 allele in trans with a human pathogenic hR2220W (mR2216W) missense mutation that causes defects in PC1 GPS cleavage and trafficking was used. Pkd1^R2216W/flox line was crossed with either Pkhd1-Cre or Pax8rtTA; Tet-OCre to generate neonatal or adult doxycycline inducible lines respectively.

[2] = tested on: Pkd1^R2216W/flox; Pkhd1-Cre mice; test: Neonatal ADPKD model with Pkd1 R2216W missense mutation in trans with floxed allele; type: in vivo, mouse
Experimental: Effect of toyocamycin were investigated in a relevant ADPKD model. For this a mouse model was constructed with a human Pkd1 missense mutation (R2216W) in trans with a floxed allele on a Pkhd1-Cre and Pax8-rtTA; tet-OCre background.
(§1) The present study first tested toyocamycin in Pkd1^flox/flox; Pax8rtTA; tet-OCre mice. Animals were given doxycycline water between P28 to P42 then treatment was started from week 6 until week 18 (0.5 mg/kg; once every 2 weeks; 6 i.p. injections). […] The present study recapitulated these findings in another slow progressing adult ADPKD model. A compound mutant model with a floxed Pkd1 allele in trans with a human pathogenic hR2220W (mR2216W) missense mutation that causes defects in PC1 GPS cleavage and trafficking was used. Pkd1^R2216W/flox line was crossed with either Pkhd1-Cre or Pax8rtTA; Tet-OCre to generate neonatal or adult doxycycline inducible lines respectively.

[3] = tested on: Pkd1^R2216W/flox; Pax8rtTA; tet-OCre mice; test: Adult ADPKD model with Pkd1 R2216W missense mutation in trans with floxed allele; type: in vivo, mouse
Experimental: In order to examine whether this drug leads to disease modifying effects in the adult counterpart of this model, Pkd1^RW/fl; Pax8^rtTA; Tet-OCre mice were generated. In this mice the Cre recombinase is turned on throughout the nephron (except for the PT S3 segment) using a doxycycline inducible system. The mice received doxycycline in the drinking water from P28-P42to induce Cre and inactivate Pkd1 and were then injected with toyocamycin once every 2weeks starting at 6 weeks of age.
as §1
Finally, the present study examined the status of apoptosis in kidneys isolated from Pkd1^R2216W/flox; Pax8rtTA; tet-OCre mice treated with toyocamycin between week 12 to 18 (FIG. 34). […] Finally, the present study set forth to examine whether the effect seen in mice can be recapitulated with a relevant cell line model. Although cell line models for PKD are average mimics of the animal models, they do provide opportunities for a closer look at mechanisms of genotype-phenotype relationships in the context of programmed cell death. The present study used a previously described cell line i.e. PN24; Pkd1^−/−) as the starting point for inactivation of XBP1 via CRISPR/Cas9. At baseline, no differences in cell viability among the 3 genotypes i.e. Pkd1^het, Pkd1^−/−, and Pkd1/XBP1 DKO were observed. The present study then compared the response of Pkd1^+/−, Pkd1^−/−, and Pkd1/XBP1 DKO cells to a sensitized background induced by treatment with 11β-dichloro, an ROS inducer.

[4] = tested on: cystic cell; test: Cystic cell viability (FIGS. 18A-18B); type: cell-based
[5] = tested on: PKD mice; test: PKD mice / preclinical models, model not further specified; type: in vivo, mouse
Experimental: FIGS. 22A-22C: Irela inhibitor prevents cyst growth in preclinical models.
FIG. 36: Gene inactivation between P28 and P42. Treatment (0.5 mg/kg; 1×/2 wks) between 6-18 weeks of age.
The basal activity of spliced active XBP1s appears to be a protective survival factor for PC1-null cells that form cysts. […] Thus, specific pharmacological inhibition of the endoribonuclease activity of IRE1α, by inhibiting its ability to splice XBP1 to active XBP1s, should be beneficial in slowing cyst growth in ADPKD. This hypothesis was tested pharmacologically by inhibiting IRE1α endoribonuclease activity using toyocamycin, which is a potent IRE1α endoribonuclease inhibitor.

[6] = biological target: Ire1α endoribonuclease activity (Homo sapiens, UniProt O75460); details: cited from earlier work
[7] = biological target: IRE1α kinase activity (Homo sapiens, UniProt O75460); details: Ri, et al., 2012; cited from earlier work
[8] = tested on: nucleotide incorporation; details: up to concentrations of 10 uM; cited from earlier work
[9] = Phase 1 trial; no changes in Hb, WBC, Pt, AP, SGOT and BUN; cited from earlier work
[10] = treatment from p9 to p16 (once/week), vs vehicle treated animals
[11] = 0.5 mg/kg i.p. once every 2 weeks, between week 6 and 18 (6 doses), p<0.001
[12] = mouse, in vivo, listed as Irela inhibitor

Sequence of Ire1α endoribonuclease activity (O75460 19-977): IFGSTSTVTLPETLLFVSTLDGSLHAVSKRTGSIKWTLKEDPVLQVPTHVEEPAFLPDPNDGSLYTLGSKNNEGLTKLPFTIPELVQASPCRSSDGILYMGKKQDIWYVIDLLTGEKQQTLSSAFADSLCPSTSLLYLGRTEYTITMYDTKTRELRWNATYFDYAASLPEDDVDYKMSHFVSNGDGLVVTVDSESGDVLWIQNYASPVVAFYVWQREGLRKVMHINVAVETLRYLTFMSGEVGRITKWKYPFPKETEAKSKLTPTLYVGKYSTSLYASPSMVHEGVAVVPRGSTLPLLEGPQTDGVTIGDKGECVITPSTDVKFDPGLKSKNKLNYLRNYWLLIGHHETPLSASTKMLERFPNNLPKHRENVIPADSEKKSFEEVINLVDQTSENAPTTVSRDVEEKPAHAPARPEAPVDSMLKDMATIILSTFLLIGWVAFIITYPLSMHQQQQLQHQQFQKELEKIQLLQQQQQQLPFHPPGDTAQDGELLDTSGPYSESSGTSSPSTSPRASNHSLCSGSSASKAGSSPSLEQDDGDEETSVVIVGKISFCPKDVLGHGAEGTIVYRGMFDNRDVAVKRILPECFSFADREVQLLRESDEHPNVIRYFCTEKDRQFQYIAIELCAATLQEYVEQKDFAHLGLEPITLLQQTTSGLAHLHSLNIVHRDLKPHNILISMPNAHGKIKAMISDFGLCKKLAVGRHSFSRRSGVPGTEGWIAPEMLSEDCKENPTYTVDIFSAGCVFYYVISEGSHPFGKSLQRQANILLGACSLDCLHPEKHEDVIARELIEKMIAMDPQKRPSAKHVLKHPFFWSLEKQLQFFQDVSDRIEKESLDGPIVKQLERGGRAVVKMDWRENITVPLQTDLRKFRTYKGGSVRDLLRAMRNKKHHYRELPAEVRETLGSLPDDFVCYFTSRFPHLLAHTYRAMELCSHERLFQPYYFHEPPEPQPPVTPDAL
Sequence of IRE1α kinase activity (O75460 19-977): as above

N#Cc1cn([C@@H]2O[C@H](CO)C(O)C2O)c2ncnc(N)c12 (stereo partly drawn) [toyocamycin, 4-Aminopyrrolo[2,3-d]pyrimidine-5-carbonitrile 7-(β-D-ribofuranoside)]
liver toxicity ([1]; 0.5 mg/kg IP, 1×/week, from 13 wks until 18 wks): does not cause liver toxicity
KW/BW ratio ([1]; 0.5 mg/kg every 2 weeks between 12 and 18, FIGS. 31A-31B): decrease
KW/BW ratio ([1]; 0.5 mg/kg i.p. once every 2 weeks, week 6 until week 18, vs untreated mice): significant decrease
disease progression ([1]; treatment from 6 to 18 weeks, started immediately after gene inactivation): improves
disease at P16 ([2]; 0.5 mg/kg at P10): significantly improved disease
KW/BW ratio ([2]; 1 dose 0.5 mg/kg i.p. at P10, assessed at P16, p<0.001): dramatic improvement
BUN ([2]; 1 dose 0.5 mg/kg i.p. at P10, assessed at P16, p<0.05): dramatic improvement
cystic phenotype (morphological and functional parameters) ([2]; FIG. 6): dramatic improvement
BUN (marker of kidney function) [2, 10]: dramatic decrease
KW/BW ratio [2, 10]: dramatic decrease
BUN [3, 11]: almost a complete rescue; also recorded: dramatic improvement
KW/BW ratio [3, 11]: almost a complete rescue; also recorded: dramatic improvement
cyst growth ([3]; 0.5 mg/kg, 1×/2 wks between 6-18 weeks of age): prevents
apoptosis of cyst lining epithelia (TUNEL) ([3]; 0.5 mg/kg, 1×/2 wks, listed as Ire1α inhibitor): causes apoptosis
disease progression ([3]; once every 2 weeks starting at 6 weeks of age, vs vehicle treated animals): almost complete inhibition
effect in cells where Cre is not expressed (selectivity) ([3]; preliminary analysis, data not shown): restricted to Pkd1 null segments
apoptosis in kidneys (TUNEL) ([3]; treated between week 12 to 18, proximal tubules marked by LTA): specific TUNEL-positive signal in cyst lining cells
levels of spliced XBP1 (qPCR) ([3]; treated vs. untreated mice, target engagement): lower; also recorded: decreased expression
cystic phenotype (morphological and functional parameters) ([3]; treatment from 6 weeks until 18 weeks age, FIG. 7): dramatic improvement
body weight ([3]; untreated vs. treated animals, once every 2 weeks, week 6 to 18): did not differ
cystic cell viability [4]: inhibits
dependence of the effect on Ire1 ([5]; FIG. 36, 0.5 mg/kg, 1×/2 wks between 6-18 weeks of age): depends on the presence of Ire1
apoptosis in cyst cells with PC1 mutation ([5]; FIGS. 22A-22C): Enhanced apoptosis
systemic toxicity (body weight) ([5]; FIGS. 22A-22C): No apparent systemic toxicity
collagen deposition ([5]; FIGS. 24A-24B): prevents
BUN (kidney function) ([5]; mouse, in vivo): reduction
kidney to body weight ratio ([5]; mouse, in vivo): dramatic reduction
serum creatinine ([5]; mouse, in vivo): reduction
BUN (kidney function) [5, 12]: Normalized kidney function
kidney to body weight ratio [5, 12]: Reduced cyst growth
inhibition of IRE1α endoribonuclease activity ([6]; Ri, et al., 2012): potent inhibitor
IC50 ([6]; in vitro, read-out: IC50, inhibition of Ire1α endoribonuclease activity): ~100 nM
inhibition of IRE1α kinase activity [7]: does not inhibit
impact on nucleotide incorporation [8]: without any impact
systemic side effects [9]: no apparent systemic side effects
